Like-named read-outs stand apart in the source and are kept apart here.
Assays:
[1] = Stability of 84-B10 in rat plasma under different storage conditions; type: in vitro ADME; conditions: n = 6
Experimental: The method was validated according to the Bioanalytical Method Validation Guidance for Industry issued by Food and Drug Administration of USA in 2018. In short, blank plasma from six different rats was collected and spiked with or without LLOQ working solutions to evaluate the sensitivity. The linear least square method was used to fit the standard curve, and the weighting coefficient was 1/x^2. The precision and accuracy were evaluated by analyzing three different concentrations of quality control samples in three consecutive days. Blank plasma was first precipitated with methanol and then spiked with QC working solutions into supernatant. The peak area was compared with QC samples to estimate the extraction recovery. Alternatively, blank plasma was replaced with ultrapure water and mixed with QC working solutions. The matrix effect was then evaluated. For stability evaluation, different concentrations of QC samples were stored at room temperature for 2 h, frozen–thawed for three cycles, or stored in an auto-sampler (extracted samples, 4 °C) for 24 h and then analyzed.

[2] = system: cisplatin-induced acute kidney injury; parameters: method as in PMID 36403736, PMID 36629048; conditions: mice, 5 mg/kg; cited from earlier work
[3] = Tissue distribution in rats after intraperitoneal injection; type: in vivo, Sprague Dawley rats; conditions: intraperitoneal 0.36 mg/kg
Experimental: (§1) The validated UPLC-MS/MS method was successfully applied to the pharmacokinetic study and tissue distribution in rats after an intraperitoneal injection of 84-B10 (0.36 mg/kg). […] Two hours later, the plasma concentration tended to flatten out, with a concentration of approximately 10 ng/mL. AUC0–t and AUC0–∞ were 269 and 278 h*ng/mL, respectively. After an intraperitoneal administration, 84-B10 could be detected in different tissues, indicating a wide distribution (Figure 4). The compound rapidly distributed and reached maximum concentration at 0.033 h for most tissues. […] In most tissues, 84-B10 was eliminated at 8 h.
(§2) After one week of adaptive feeding, pharmacokinetic experiments were conducted. 84-B10 (0.36 mg/kg) solution was injected and blood was collected into tubes containing heparin sodium at 0.033, 0.083, 0.25, 0.5, 1, 2, 4, 6 and 8 h after administration. Blood was centrifuged at 8000 rpm for 5 min to obtain the plasma. The tissue was accurately weighed and ground with pure water (w:v, 1:5) to obtain homogenate. An amount of 50 µL of biological matrix was precipitated with 200 μL of methanol containing IS (Ginkgolide J, 2 μg/mL). After vortexing for 5 min, the samples were centrifuged at 12,000 rpm for 5 min and the supernatant was taken for injection.

[4] = Pharmacokinetic study in rats after intraperitoneal injection (UHPLC-MS/MS); type: in vivo, Sprague Dawley rats; conditions: for Cmax / AUC(0-inf) / AUC(0-t) / Tmax / half-life: ip
Experimental: as §1
84-B10 was determined and quantified by ExionLC system coupled with SCIEX 4500 triple quadrupole mass spectrometers (SCIEX, Framingham, MA, USA). A phenyl HPLC column (50 × 2.1 mm, 3 μm) (YMC, Kyoto, Japan) was used for separation. Methanol was selected as the organic phase as it could better reflect the π-π selectivity between benzene and the chromatographic column. An amount of 5 mM ammonium formate was added into water to adjust the dissociation of 84-B10 and to improve the chromatographic peak. The flow rate was 0.3 mL/min with gradient elution (Table 8).
as §2

Lon protease 1 (LONP1) = target: Lon protease 1 (LONP1); parameters: method as in PMID 36629048; conditions: cited from earlier work
[5] = parameters: method as in PMID 36629048; conditions: mice, intraperitoneal 5 mg/kg, plasma, non-compartmental WinNonlin 7.0 on concentrations from previous publication; cited from earlier work
LonP1 = system: LonP1; parameters: method as in PMID 36629048; conditions: cited from earlier work
[6] = system: renal fibrosis induced by unilateral ureteral obstruction (UUO) or unilateral ischemia reperfusion injury (UIRI); parameters: method as in PMID 36403736, PMID 36629048; conditions: mice, dose of 0.5–7.5 mg/kg; cited from earlier work
[7] = extracted rat plasma samples, autosampler 4 °C for 24 h, spiked 3 ng/mL
[8] = extracted rat plasma samples, autosampler 4 °C for 24 h, spiked 300 ng/mL
[9] = extracted rat plasma samples, autosampler 4 °C for 24 h, spiked 750 ng/mL
[10] = rat plasma, room temperature for 2 h, spiked 3 ng/mL
[11] = rat plasma, room temperature for 2 h, spiked 300 ng/mL
[12] = rat plasma, room temperature for 2 h, spiked 750 ng/mL
[13] = rat plasma, three freeze–thaw cycles, spiked 3 ng/mL
[14] = rat plasma, three freeze–thaw cycles, spiked 300 ng/mL
[15] = rat plasma, three freeze–thaw cycles, spiked 750 ng/mL
[16] = Sprague Dawley, rat, plasma, single intraperitoneal injection 0.36 mg/kg, female, mean ± SD
[17] = Sprague Dawley, rat, plasma, single intraperitoneal injection 0.36 mg/kg, male, mean ± SD
[18] = both sexes, Sprague Dawley, rat, plasma, single intraperitoneal injection 0.36 mg/kg, total (male and female), mean ± SD

## COc1ccc(Oc2ccc(C(F)(F)F)cc2NC(=O)CC(CC(=O)O)c2ccccc2)cc1 (stereo not shown) [84-B10, 5-[[2-(4-methoxyphenoxy)-5-(trifluoromethyl)phenyl]amino]-5-oxo-3-phenylpentanoic acid]
[1]; [7]
  Measured Concentrations: 3.15 ± 0.11 ng/mL
  RE: 5.00%
[1]; [8]
  Measured Concentrations: 299 ± 10 ng/mL
  RE: −0.33%
[1]; [9]
  Measured Concentrations: 710 ± 27 ng/mL
  RE: −5.38%
[1]; [10]
  Measured Concentrations: 2.96 ± 0.10 ng/mL
  RE: −1.50%
[1]; [11]
  Measured Concentrations: 278 ± 3 ng/mL
  RE: −7.44%
[1]; [12]
  Measured Concentrations: 670 ± 15 ng/mL
  RE: −10.7%
[1]; [13]
  Measured Concentrations: 2.87 ± 0.29 ng/mL
  RE: −4.22%
[1]; [14]
  Measured Concentrations: 287 ± 20 ng/mL
  RE: −4.28%
[1]; [15]
  Measured Concentrations: 684 ± 18 ng/mL
  RE: −8.87%
[2]
  therapeutic effect on cisplatin-induced acute kidney injury: significant therapeutic effect
[3]; Sprague Dawley, rat, most tissues (tissue homogenate), ip, most tissues, read-out: time of maximum concentration in most tissues
  Tmax: 1.98 min
[3]
  tissues with highest concentration: most concentrated in the intestine, stomach, liver, kidney and lung
[3]; most tissues
  time at which eliminated in most tissues: 8 h
[4]; Sprague Dawley, rat, intraperitoneal 0.36 mg/kg, plasma, non-compartmental WinNonlin 7.0, read-out: Cmax, observed
  Cmax: 257 ng/mL
[4]; Sprague Dawley, rat, plasma, intraperitoneal 0.36 mg/kg, 2 h after injection, curve flattens out, read-out: plasma concentration two hours later
  concentration at 2 h: ~10 ng/mL
[4]; [16]
  AUC(0-inf): 241 ± 29 ng·h/mL
  AUC(0-t): 233 ± 27 ng·h/mL
  Tmax: 8.4 ± 6 min
  half-life: 25.8 ± 2.4 min
[4]; Sprague Dawley, rat, plasma, single intraperitoneal injection 0.36 mg/kg, female, mean ± SD, read-out: Cmax
  Cmax: 231 ± 2.08 ng/mL
[4]; [17]
  AUC(0-inf): 315 ± 31 ng·h/mL
  AUC(0-t): 305 ± 30.2 ng·h/mL
  Tmax: 11.4 ± 6 min
  half-life: 27 ± 1.2 min
[4]; Sprague Dawley, rat, plasma, single intraperitoneal injection 0.36 mg/kg, male, mean ± SD, read-out: Cmax
  Cmax: 284 ± 48.2 ng/mL
[4]; [18]
  AUC(0-inf): 278 ± 48.9 ng·h/mL
  AUC(0-t): 269 ± 47.3 ng·h/mL
  Tmax: 10.2 ± 5.4 min
  half-life: 26.4 ± 1.8 min
[4]; both sexes, Sprague Dawley, rat, plasma, single intraperitoneal injection 0.36 mg/kg, total (male and female), mean ± SD, read-out: Cmax
  Cmax: 257 ± 42.4 ng/mL
[4]; intraperitoneal 0.36 mg/kg, male vs female
  gender difference in the absorption: no significant gender difference
[4]; intraperitoneal 0.36 mg/kg, plasma, non-compartmental WinNonlin 7.0
  Cl, observed: 22.2 mL/min/kg
[4]; single intraperitoneal injection 0.36 mg/kg, female, mean ± SD
  CL: 25.15 ± 2.95 mL/min/kg
[4]; single intraperitoneal injection 0.36 mg/kg, male, mean ± SD
  CL: 19.15 ± 1.98 mL/min/kg
[4]; single intraperitoneal injection 0.36 mg/kg, total (male and female), mean ± SD
  CL: 22.15 ± 3.98 mL/min/kg
Lon protease 1 (LONP1); previous research, read-out: binding affinity
  Kd: 312 nM
Lon protease 1 (LONP1); same value expressed in ng/mL
  binding affinity: 147 ng/mL
[5]
  AUC0→t, observed: 1327 ng·h/mL
  Cl, observed: 56.8 mL/min/kg
  Cmax, observed: 2038 ng/mL
  Vd, observed: 11.20 L/kg
LonP1
  LonP1 activation: new LonP1 activator
[6]
  effect on renal fibrosis induced by UUO or UIRI: dose-dependently alleviated renal fibrosis
